In the assay the target is human indoleamine 2,3-dioxygenase (hIDO) (Homo sapiens, UniProt P14902). The assay can be described thus: steady-state dioxygenase activity of hIDO.
The mark [1] stands for this setting: compound as substrate, no IDE, pH 7.4, air-saturated, kcat = Vmax/[hIDO].
Setting [2] is: L-Trp reaction in the presence of 2.5 mM IDE, pH 7.4.
The mark [3] stands for this setting: L-Trp reaction in the presence of 5.1 mM IDE, pH 7.4.

Several values for one entry are separate records, joined by “and”; a condition that tells them apart may be missing. Equal entries are not always repeated.

human indoleamine 2,3-dioxygenase (hIDO), sequence (P14902 whole entry): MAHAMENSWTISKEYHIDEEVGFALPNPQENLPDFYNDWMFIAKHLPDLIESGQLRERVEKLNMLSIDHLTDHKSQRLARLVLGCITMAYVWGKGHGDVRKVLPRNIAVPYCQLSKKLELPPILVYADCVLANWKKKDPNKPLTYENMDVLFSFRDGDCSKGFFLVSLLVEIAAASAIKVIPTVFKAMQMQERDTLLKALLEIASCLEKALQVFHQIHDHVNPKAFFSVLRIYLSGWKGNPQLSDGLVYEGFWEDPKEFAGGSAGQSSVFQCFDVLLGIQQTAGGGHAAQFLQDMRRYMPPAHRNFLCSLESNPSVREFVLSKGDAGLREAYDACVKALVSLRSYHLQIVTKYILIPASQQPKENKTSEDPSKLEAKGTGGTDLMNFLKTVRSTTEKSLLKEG

Turning to `N[C@H](Cc1c[nH]c2ccccc12)C(=O)O` [D-Trp], where the note is “activity as a function of substrate concentration, Figure 1b”, the substrate inhibition entry is listed as “No substrate inhibition was observed”. Moreover, for the setting “compound as substrate”, the Km – broadly, the substrate concentration at which the rate is half of its maximum – is 2600 µM; the “Km, fold larger as compared to the L-Trp reaction” value was found to be 170 fold; the “kcat, fold faster as compared to the L-Trp reaction” value was 2 fold. Also, the Km (compound as substrate, no IDE, pH 7.4, air-saturated) was determined as 2600 µM. For the same compound, under setting [1], the kcat – broadly, the number of substrate molecules converted per active site and unit of time at saturation – was 5.9 s⁻¹ and 5.9 ± 0.3 s⁻¹.

Take `OCCc1c[nH]c2ccccc12` [IDE, 3-Indole Ethanol]: under setting [2], the Ksi was 0.48 ± 0.05 mM and the kcat was 3.2 ± 0.4 s⁻¹. Moreover, under setting [3], the Ksi was 1.0 ± 0.1 mM and the kcat stood at 3.5 ± 0.6 s⁻¹.

Regarding `N[C@@H](Cc1c[nH]c2ccccc12)C(=O)O` [L-Trp, L-tryptophan], the kcat under setting [1] came to 3.1 ± 0.2 s⁻¹. Also, the “Ksi (self-inhibition / substrate-inhibition constant)” value (compound as substrate, no IDE, pH 7.4, fit with eq 1) is 0.17 mM and 0.17 ± 0.2 mM.

Turning to `CO[C@@]12[C@H](COC(N)=O)C3=C(C(=O)C(C)=C(N)C3=O)N1C[C@@H]1N[C@@H]12` [MtoC, Mitomycin C], the mode of inhibition result (Lineweaver–Burk plot of L-Trp reaction) is “uncompetitive”.

The values above are taken from paper PMC5448288 (Journal of the American Chemical Society, 2009).
